Measured values reported in PMC13205134, “Design, synthesis, and biological properties exhibited by 1,2,3-triazole based Grp94-selective inhibitors” (European journal of medicinal chemistry, 2025).
“And” between values parts separate entries of the source, which are not always exact repeats. Equal values may be shown once. “Also recorded” adds a separate entry of the source.

Experiments:
wild-type myocilin = assay: Cellular assay for wild-type myocilin in dox-inducible trabecular meshwork (TM-1) cells; format: cell-based, human; conditions: higher dose (30 μM), 24 h, Western blot
Method: (§1) Immortalized human trabecular meshwork (TM-1) cells stably transduced with WT or Y437H myocilin (50 MOI) were grown in low-glucose (1 g/L) Dulbecco’s modified Eagle medium with glutamine (DMEM, Gibco) supplemented with 10 % FBS (Hyclone), 1–2 % PS (Gibco) at 37 °C, and 200 μg/mL hygromycin (Corning), TM-1 cells were seeded in 6 well plates at equivalent cell counts/replicate. The following day, myocilin expression was induced by treating the cells with 2 μg/mL doxycycline (dox, Thermo-Scientific) in serum-free media. After 48 h, media was replaced with serum-free media containing 2 μg/mL dox to induce myocilin expression and 47 at the designated concentration for an additional 24 h.
Cells were lysed using lysis buffer (100 mM Tris-HCl pH 7.4, 3 mM EGTA, 5 mM MgCl2, 0.5 % Triton X 100) supplemented with 0.6 mM phenylmethylsulfonyl fluoride, and a 1:100 v/v protease inhibitor cocktail containing complete EDTA-free protease inhibitor (Roche) and 1 % (v/v) phosphatase inhibitor cocktails II and III (Sigma-Aldrich). Cells lysed by rocking in lysis buffer for ~2 h at 4 °C. […] Protein concentration of the detergent-soluble fractions was determined by BCA assay (Pierce).
The detergent-soluble samples were prepared in equal protein concentration in 5X Laemmli buffer containing 5–10 % (v/v) β-mercaptoethanol. […] Quantification of protein bands on Western blots was performed using ImageLab (Bio-Rad). […]

Y437H myocilin = assay: Cellular assay for mutant myocilin in dox-inducible trabecular meshwork (TM-1) cells; format: cell-based, human
Method: as §1
Cells were lysed using lysis buffer (100 mM Tris-HCl pH 7.4, 3 mM EGTA, 5 mM MgCl2, 0.5 % Triton X 100) supplemented with 0.6 mM phenylmethylsulfonyl fluoride, and a 1:100 v/v protease inhibitor cocktail containing complete EDTA-free protease inhibitor (Roche) and 1 % (v/v) phosphatase inhibitor cocktails II and III (Sigma-Aldrich). Cells lysed by rocking in lysis buffer for ~2 h at 4 °C. Detergent-soluble and detergent insoluble fractions were separated by centrifugation. Protein concentration of the detergent-soluble fractions was determined by BCA assay (Pierce).
The detergent-soluble samples were prepared in equal protein concentration in 5X Laemmli buffer containing 5–10 % (v/v) β-mercaptoethanol. The samples were heated at 95 °C for 5 min and loaded on 12 % Tris-glycine gels. The gels were then transferred to methanol-activated PVDF membranes using the Trans-blot Turbo transfer system (Bio-Rad). […] Quantification of protein bands on Western blots was performed using ImageLab (Bio-Rad). Measurements of band density were normalized to actin loading control within each experiment, and the statistical significance was determined with one-way ANOVA with GraphPad Prism.

Hsp70 = assay: Western blot of Hsp70 in MDA-MB-231 cells; format: cell-based; conditions: 24 h
Method: (§2) MDA-MB-231 cells were grown in a water jacketed incubator at 37 °C with 5 % CO2. Cells were cultured in DMEM (Corning) media supplemented with 10 % heat-inactivated fetal bovine serum (FBS, Gibco, 10438-026) and 1 % Penicillin-Streptomycin (VWR, K952-100 mL). Cells were seeded in clear, flat bottom 6-well plates with each well containing 500,000 cells and grown to 80 % confluency. The medium was replaced with fresh DMEM that contains compounds of interest at the indicated concentrations or vehicle control, and cells were incubated for 24 h. Following treatment, MDA-MB-231 cells were then lysed in RIPA buffer supplemented with protease and phosphatase inhibitors. Protein concentration in lysates were determined by BCA assay (Thermo). Equal amounts of protein were separated by SDS-PAGE on 10 % polyacrylamide gels and […] onto nitrocellulose membranes. Transfer efficiency and total protein loading were confirmed by Ponceau staining. Membranes were blocked with 6 % nonfat dry milk and probed with primary antibodies against GAPDH (Cell Signaling, 14C10), Hsp70 (Cell Signaling, C92F3A), Akt, and Integrin α2 (Cell Signaling, D8V7H) each diluted 1:1000. Secondary antibodies were also used at 1:1000 (Southern Biotech), immunoblots were developed using ECL substrate (Amersham, 45-000-999) and visualized on a ChemiDoc Imaging System (BioRad).

integrin α2 = assay: Western blot of integrin α2 in MDA-MB-231 cells; format: cell-based; conditions: 5 μM, 24 h
Method: as §2

Hsp90α = Hsp90α (Homo sapiens, UniProt P07900); assay: Competitive binding fluorescence polarization (FP) assay, Hsp90α; conditions: FITC-GDA tracer, mean of triplicates ± SD, read-out: Apparent Kd Hsp90α
Method: The Fluorescence Polarization Assay (FP) was performed in 96-well flat-bottom plates (Santa Cruz Biotechnology) with a final volume of 100 μL per well. The assay buffer consisted of 20 mM HEPES, 50 mM KCl, 10.5 mM MgCl2, 20 mM Na2MoO4, 0.01 % NP-40 detergent (NP-40), and pH 7.3 with fresh 2 mM dithiothreitol (DTT) and 0.1 mg/mL bovine γ-globulin (BGG). Each well contained 10 nM of Hsp90α or Grp94 (Enzo Biochem Inc.) and 6 nM of FITC-GDA (fluorescent tracer, stock in DMSO). Compounds were tested in triplicate at final concentrations of 100 μM, 10 μM, 1 μM, 0.1 μM and 0.01 μM with each final concentration containing 1 % DMSO. Each plate included control wells containing: (i) buffer only (background polarization), (ii) protein plus tracer (maximum polarization control), and (iii) tracer only (minimum polarization control). Plates were incubated on a rocker at 4 °C for 24 h. Fluorescence polarization (mP units) was measured at 37 °C using excitation and emission wavelengths of 485 and 528 nm, respectively. Apparent Kd values were determined via calculations from the polarization data obtained at which the tracer was displaced by 50 % by the compounds of interest.
[I50] = concentration of free inhibitor at 50% inhibition, [L50] = concentration of free fluorescence labeled ligand molecule at 50% inhibition, [P0] = concentration of free protein at 0% inhibition, K = dissociation constant of the protein−ligand complex.^4

Akt = assay: Western blot of Akt in MDA-MB-231 cells; format: cell-based; conditions: 24 h
Method: as §2

Grp94 = assay: Competitive binding fluorescence polarization (FP) assay, Grp94; conditions: for Polarization Read 1 / Polarization Read 2 / Polarization Read 3: replicate wells, protein not given
Method: The Fluorescence Polarization Assay (FP) was performed in 96-well flat-bottom plates (Santa Cruz Biotechnology) with a final volume of 100 μL per well. […] Each well contained 10 nM of Hsp90α or Grp94 (Enzo Biochem Inc.) and 6 nM of FITC-GDA (fluorescent tracer, stock in DMSO). Compounds were tested in triplicate at final concentrations of 100 μM, 10 μM, 1 μM, 0.1 μM and 0.01 μM with each final concentration containing 1 % DMSO. Each plate included control wells containing: (i) buffer only (background polarization), (ii) protein plus tracer (maximum polarization control), and (iii) tracer only (minimum polarization control). Plates were incubated on a rocker at 4 °C for 24 h.

With `CCCc1ccccc1Cc1cnnn1CCc1c(Cl)c(O)cc(O)c1C(=O)OC` [Compound 47, methyl 3-chloro-4,6-dihydroxy-2-(2-(5-(2-propylbenzyl)-1H-1,2,3-triazol-1-yl)ethyl)benzoate] as the compound, how does the wild-type myocilin expression (wild-type myocilin) read?
The wild-type myocilin expression was “statistically significant decrease”.

What about the Y437H-mutant myocilin levels (Y437H myocilin; 3 μM, 24 h, TM-1 cells, Western blot) of the same compound?
The Y437H-mutant myocilin levels was “statistically significant reduction”.

And the “reduction of levels of intracellular myocilin” value (Y437H myocilin; 30 μM, 24 h, TM-1 cells Y437H myocilin, Western blot)?
Its value is ≥ 50%.

And the “intracellular accumulation of mutant myocilin” value (Y437H myocilin; human trabecular meshwork cells, concentration not given)?
The value was “reduced the intracellular accumulation of mutant myocilin”.

What about the Hsp70 expression (Hsp70) of the same compound?
The Hsp70 expression was “does not induce Hsp70 expression”.

And the “levels of Integrin α2” value (integrin α2)?
The value was “induced the degradation of integrin α2; also recorded: reduced the levels of Integrin α2”.

And the Kd (Hsp90α)?
The Kd was 9.17 ± 0.86 µM.

And the “effect on Akt (cytosolic Hsp90 client protein)” value (Akt)?
Its value is “did not affect Akt”.

And the “Polarization Read 1” value (Grp94; 0.01 µM)?
Its value is 298 and 289 and 285.

What about the “Polarization Read 2” value (Grp94; 0.01 µM) of the same compound?
The value was 278 and 288 and 270.

And the “Polarization Read 3” value (Grp94; 0.01 µM)?
The value was 275 and 284 and 279.

What about the “Polarization Read 1” value (Grp94; 0.1 µM) of the same compound?
The value was 247 and 250 and 234.

And the “Polarization Read 2” value (Grp94; 0.1 µM)?
The value was 234 and 231 and 237.

What about the “Polarization Read 3” value (Grp94; 0.1 µM) of the same compound?
The value was 220 (2×) and 210.

And the “Polarization Read 1” value (Grp94; 1 µM)?
The value was 189 and 179 and 182.

And the “Polarization Read 2” value (Grp94; 1 µM)?
Its value is 178 and 177 and 180.

And the “Polarization Read 3” value (Grp94; 1 µM)?
The value was 185 (2×) and 186.

What about the “Polarization Read 1” value (Grp94; 10 µM) of the same compound?
The value was 170 and 191 and 174.

And the “Polarization Read 2” value (Grp94; 10 µM)?
The value was 172 and 178 and 176.

What about the “Polarization Read 3” value (Grp94; 10 µM) of the same compound?
The value was 169 and 185 and 177.

And the “improvement in affinity compared to BnIm” value (Grp94; Grp94 affinity, relative to first generation BnIm)?
Its value is 15 fold.

What about the “improvement in affinity compared to BnPh” value (Grp94; Grp94 affinity, relative to second generation BnPh) of the same compound?
Its value is 8 fold.

And the “increase in affinity on extension of ethyl to propyl group” value (Grp94; Grp94 affinity, relative to the 2-ethyl analog)?
The value was 10 fold.

What about the “Fold selective for Grp94” value (Grp94; selectivity over Hsp90α, n.s. = non-selective) of the same compound?
The value was 121 fold.
